Test results reported in patent publication US8835446B2, “Quinazoline derivatives and pharmaceutical compositions thereof” (Nippon Shinyaku Co., Ltd., priority 2005, dated 2014).

Tests used:
Guinea Pigs = assay: Test for skin sensitization in guinea pigs (adjuvant and patch test method)
Description: The dorsal area of male Hartley guinea pigs (n=5) at the age of 7 weeks was shaved with an electric shaver, and on the following day, primary sensitization was initiated. In the primary sensitization, emulsified complete Freund's adjuvant was intradermally administered at a dose of 0.1 ml only at the initial time, and an adhesive plaster for a patch test spread with 0.1 g of an ointment containing a test compound at 1%, was applied in an occluded state to the site where the adjuvant was intradermally administered. As a base of the ointment, petrolatum containing sorbitan sesquioleate (a surfactant) at 1% was used. At 24 hours after the adhesive plaster for a patch test was applied, the adhesive plaster was removed, and the application site was cleaned by wiping. The procedure of this primary sensitization was performed once daily and continued for a total of 3 days. On 7 days after the initial application of the primary sensitization, secondary sensitization was performed. The site subjected to the primary sensitization was shaved, and an ointment containing sodium lauryl sulfate at 10% was applied thereto in an open state. After 24 hours, the application site was cleaned by wiping, and a lint cloth spread with 0.2 g of the ointment containing a test compound at 1% was applied, thereto in an occluded state. At 48 hours after the lint cloth was applied, the cloth was removed, and the application site was cleaned by wiping. Challenge was performed on 13 days after initiation of the secondary sensitization. The dorsal area and flank area were shaved, and 0.01 g of the ointment containing a test compound at 1% was applied to the challenge site and left for about 24 hours. At about 24 hours and 48 hours after the challenge, observation of the skin surface was performed, and the presence or absence of sensitizing was determined. The determination was carried out by scoring according to the evaluation criteria (see Table 1) of the Draize method (1959).
In this connection, as a positive control, 1-chloro-2,4-dinitrobenzene (DNCB) (sensitization: 1%, challenge: 0.1%) was used. As the test compound, the compounds of Example 58 and Example 248 were used. As a comparative control, 4-[((1S,2R)-2-{[amino(imino)methyl]amino}cyclohexyl)amino]-N-isobutyl-6-methylquinazoline-2-carboxamide dihydrochloride described in Example 383 in Patent document 1 (sensitization: 0.1%, induction: 1%) was used.

Mice [1] = assay: Acute toxicity test in mice; type: in vivo, mouse; settings: intravenous, observed for 2 hours
Source text: Male ICR mice at the age of 4 to 6 weeks were used.

Mice [2] = assay: Effect on scratching behavior induced by serotonin application in mice; type: in vivo, mouse; settings: counted for 15 minutes
Description: To the cervical and dorsal area of male ICR mice (n=3 to 6) at the age of 4 to 6 weeks, 100 μl of a solution obtained by dissolving serotonin hydrochloride in ethanol at 0.1% (hereinafter referred to as serotonin) was applied, and the number of scratching behavior at the application site with the hind legs occurring immediately after the application was counted for 15 minutes after administration with a counter. Administration of a test compound was carried out by skin application, intravenous administration or oral administration. In the case of skin application, the test compound that was dissolved in ethanol was applied in an amount of 100 μl concurrently with serotonin. In the case of intravenous administration, the test compound that was dissolved in physiological saline was administered at a dose of 10 ml/kg at 5 minutes prior to the serotonin application. In the case of oral administration, the test compound that was dissolved in distilled water was administered at a dose of 10 ml/kg at 20 minutes prior to the serotonin application. The control group of each administration route was given the respective solvent, and the values of scratching behavior were compared between the control group and the test compound group.
The results obtained by skin application of the test compound are shown in Table 3; the results obtained by intravenous administration of the test compound are shown in Table 4; and the results obtained by oral administration of the test compound are shown in Table 5.

Rabbits = settings: female, Kbs: JW, rabbit, in vivo, 24 h
Source text: Then, erythema and edema formation at the application site was observed. […] The mean value of the sum of erythema and edema scores was used as a simple primary skin irritation index. […]

[3] = positive control, sensitization: 1%, challenge: 0.1%, n=5
[4] = intravenous administration, dose 3 mg/kg, 5 minutes prior to serotonin
[5] = skin application, concentration 0.1% in ethanol, concurrently with serotonin
[6] = oral administration, dose 30 mg/kg, 20 minutes prior to serotonin

SMILES | Average number of scratching behavior (Mice [2]; [5]) | Simple primary skin irritation index (Rabbits) | Change in behavior (Mice [1]; 10 mg/kg) | also measured
O=[N+]([O-])c1ccc(Cl)c([N+](=O)[O-])c1 [DNCB, 1-chloro-2,4-dinitrobenzene] | – | – | – | edema (Draize score, cases) (Guinea Pigs; [3]): score 1 in 3/5 cases, and score 0 in 2/5 cases; erythema (Draize score, cases) (Guinea Pigs; [3]): score 3 in 3/5 cases, score 2 in 1/5 cases, and score 1 in 1/5 cases
COCCNC(=O)c1nc(N[C@H]2CCCC[C@H]2NC(N)=NOC)c2cc(C)ccc2n1.Cl.Cl [Example 208, 4-[((1S,2R)-2-{[amino(methoxyimino)methyl]amino}cyclohexyl)amino]-N-(2-methoxyethyl)-6-methylquinazolin-2-carboxamide dihydrochloride] | 81.0 | 0.2 | – | Change in behavior (Mice [1]; 20 mg/kg): No obvious change; Average number of scratching behavior (Mice [2]; [4]): 53.8
Cc1ccc2nc(C(=O)NCC(C)C)nc(N[C@H]3CCCC[C@H]3NC(=N)N)c2c1.Cl.Cl [Comparative control A, 4-[((1S,2R)-2-{[amino(imino)methyl]amino}cyclohexyl)amino]-N-isobutyl-6-methylquinazoline-2-carboxamide dihydrochloride] | – | 1.8 | – | edema (Draize score, cases) (Guinea Pigs; guinea pig, in vivo): edema was not observed in all the cases; erythema (Draize score, cases) (Guinea Pigs; male, Hartley, guinea pig, in vivo): well-defined erythema (score 2) was observed in 2/5 cases
COCCNC(=O)c1nc(N[C@H]2CCCC[C@H]2NC(C)=N)c2cc(C)ccc2n1.Cl.Cl [Example 1, 4-{[(1S,2R)-2-(ethanimidoylamino)cyclohexyl]amino}-N-(2-methoxyethyl)-6-methylquinazolin-2-carboxamide dihydrochloride] | 57.8 | 0.3 | No obvious change | –
Cc1ccc2nc(C(=O)NC(C)C)nc(N[C@H]3CCCC[C@H]3NC(=N)CCO)c2c1.Cl.Cl [Example 58, 4-({(1S,2R)-2-[(3-hydroxypropanimidoyl)amino]cyclohexyl}amino)-N-isopropyl-6-methylquinazolin-2-carboxamide dihydrochloride] | 55.5 | 0.4 | No obvious change | –
COCCCNC(=O)c1nc(N[C@H]2CCCC[C@H]2NC(N)=NO)c2cc(C)ccc2n1.Cl.Cl [Example 240, 4-[((1S,2R)-2-{[amino(hydroxyimino)methyl]amino}cyclohexyl)amino]-N-(3-methoxypropyl)-6-methylquinazolin-2-carboxamide dihydrochloride] | 65.3 | 1.0 | No obvious change | Average number of scratching behavior (Mice [2]; [6]): 95.2
CC(=N)N[C@@H]1CCCC[C@@H]1Nc1nc(C(=O)NC(C)C)nc2ccc(C)cc12.Cl.Cl [Example 101, 4-{[(1S,2R)-2-(ethanimidoylamino)cyclohexyl]amino}-N-isopropyl-6-methylquinazolin-2-carboxamide dihydrochloride] | 56.8 | 2.6 | No obvious change | –
Cc1ccc2nc(C(=O)NCC(C)C)nc(N[C@H]3CCCC[C@H]3NC(=N)C(C)(C)O)c2c1.Cl.Cl [Example 60, 4-({(1S,2R)-2-[(2-hydroxy-2-methylpropanimidoyl)amino]cyclohexyl}amino)-N-isobutyl-6-methylquinazolin-2-carboxamide dihydrochloride] | – | 1.0 | – | Change in behavior (Mice [1]; 5 mg/kg): No obvious change; Average number of scratching behavior (Mice [2]; [4]): 64.0
COCCCNC(=O)c1nc(N[C@H]2CCCC[C@H]2NC(N)=NOC)c2cc(C)ccc2n1.Cl.Cl [Example 239, 4-[((1S,2R)-2-{[amino(methoxyimino)methyl]amino}cyclohexyl)amino]-N-(3-methoxypropyl)-6-methylquinazolin-2-carboxamide dihydrochloride] | 55.8 | 1.0 | No obvious change | Average number of scratching behavior (Mice [2]; [6]): 88.6
